Each compound was assayed on recombinant NL4-3 virus (Renilla luciferase in nef, Gag P373S) (assay: HIV cell culture assay (luciferase activity in MT-2 cells infected with NLRluc recombinant virus)). Conditions: NL43, MT-2 cells infected 4-5 days with NLRluc recombinant virus, class symbol.
Type: cell-based
Protocol: HIV cell culture assay—MT-2 cells and 293T cells were obtained from the NIH AIDS Research and Reference Reagent Program. MT-2 cells were propagated in RPMI 1640 media supplemented with 10% heat inactivated fetal bovine serum, […]. The 293T cells were propagated in DMEM media supplemented with 10% heat inactivated fetal bovine serum (FBS), 100 units/ml penicillin G and 100 μg/ml streptomycin. The proviral DNA clone of NL4-3 was obtained from the NIH AIDS Research and Reference Reagent Program. A recombinant NL4-3 virus, in which a section of the nef gene from NL4-3 was replaced with the Renilla luciferase gene, was used as a reference virus. In addition, residue Gag P373 was converted to P373S. Briefly, the recombinant virus was prepared by transfection of the altered proviral clone of NL4-3. Transfections were performed in 293T cells using LipofectAMINE PLUS from Invitrogen (Carlsbad, Calif.), according to manufacturer's instruction. The virus was titered in MT-2 cells using luciferase enzyme activity as a marker. Luciferase was quantitated using the Dual Luciferase kit from Promega (Madison, Wis.), with modifications to the manufacturer's protocol. The diluted Passive Lysis solution was pre-mixed with the re-suspended Luciferase Assay Reagent and the re-suspended Stop & Glo Substrate (2:1:1 ratio). Fifty (50) μL of the mixture was added to each aspirated well on assay plates and luciferase activity was measured immediately on a Wallac TriLux (Perkin-Elmer). Antiviral activities of inhibitors toward the recombinant virus were quantified by measuring luciferase activity in cells infected for 4-5 days with NLRluc recombinants in the presence serial dilutions of the inhibitor. Table 1 is the key for the data in Table 2.

Compound | EC50 [nM]
C=C(C)[C@@H]1CC[C@]2(CN(CCCN3CCS(=O)(=O)CC3)C(=O)CCC(=O)O)CC[C@]3(C)[C@H](CC[C@@H]4[C@@]5(C)CC=C(c6ccc(C(=O)O)cc6)C(C)(C)[C@@H]5CC[C@]43C)[C@@H]12 [Example 16, 4-((1R,3aS,5aR,5bR,7aR,11aS,11bR,13aR,13bR)-5a,5b,8,8,11a-pentamethyl-1-(prop-1-en-2-yl)-3a-((3-(1-dioxo-thiomorpholino)propylamino)methyl)-2,3,3a,4,5,5a,5b,6,7,7a,8,11,11a,11b,12,13,13a,13b-octadecahydro-1H-cyclopenta[a]chrysen-9-yl)benzoic acid] | < 100
C=C(C)[C@@H]1CC[C@]2(CN(CCCN3CCS(=O)(=O)CC3)C(C)=O)CC[C@]3(C)[C@H](CC[C@@H]4[C@@]5(C)CC=C(c6ccc(C(=O)O)cc6)C(C)(C)[C@@H]5CC[C@]43C)[C@@H]12 [Example 17, 4-((1R,3aS,5aR,5bR,7aR,11aS,11bR,13aR,13bR)-5a,5b,8,8,11a-pentamethyl-1-(prop-1-en-2-yl)-3a-((3-(1-dioxo-thiomorpholino)propylamino)methyl)-2,3,3a,4,5,5a,5b,6,7,7a,8,11,11a,11b,12,13,13a,13b-octadecahydro-1H-cyclopenta[a]chrysen-9-yl)benzoic acid] | < 100
C=C(C)[C@@H]1CC[C@]2(CNCCCN(C)c3ccccc3)CC[C@]3(C)[C@H](CC[C@@H]4[C@@]5(C)CC=C(c6ccc(C(=O)O)cc6)C(C)(C)[C@@H]5CC[C@]43C)[C@@H]12 [Example 18, 4-((1R,3aS,5aR,5bR,7aR,11aS,11bR,13aR,13bR)-5a,5b,8,8,11a-pentamethyl-3a-((3-(methyl(phenyl)amino)propylamino)methyl)-1-(prop-1-en-2-yl)-2,3,3a,4,5,5a,5b,6,7,7a,8,11,11a,11b,12,13,13a,13b-octadecahydro-1H-cyclopenta[a]chrysen-9-yl)benzoic acid] | < 100
C=C(C)[C@@H]1CC[C@]2(CNCCCNC)CC[C@]3(C)[C@H](CC[C@@H]4[C@@]5(C)CC=C(c6ccc(C(=O)O)cc6)C(C)(C)[C@@H]5CC[C@]43C)[C@@H]12 [Example 19, 4-((1R,3aS,5aR,5bR,7aR,11aS,11bR,13aR,13bR)-5a,5b,8,8,11a-pentamethyl-3a-((3-(methylamino)propylamino)methyl)-1-(prop-1-en-2-yl)-2,3,3a,4,5,5a,5b,6,7,7a,8,11,11a,11b,12,13,13a,13b-octadecahydro-1H-cyclopenta[a]chrysen-9-yl)benzoic acid] | < 100
C=C(C)[C@@H]1CC[C@]2(CNCCn3ccnc3)CC[C@]3(C)[C@H](CC[C@@H]4[C@@]5(C)CC=C(c6ccc(C(=O)O)cc6)C(C)(C)[C@@H]5CC[C@]43C)[C@@H]12 [Example 20, 4-((1R,3aS,5aR,5bR,7aR,11aS,11bR,13aR,13bR)-3a-((2-(1H-imidazol-1-yl)ethylamino)methyl)-5a,5b,8,8,11a-pentamethyl-1-(prop-1-en-2-yl)-2,3,3a,4,5,5a,5b,6,7,7a,8,11,11a,11b,12,13,13a,13b-octadecahydro-1H-cyclopenta[a]chrysen-9-yl)benzoic acid] | < 100
C=C(C)[C@@H]1CC[C@]2(CNCCN(CC)CC)CC[C@]3(C)[C@H](CC[C@@H]4[C@@]5(C)CC=C(c6ccc(C(=O)O)cc6)C(C)(C)[C@@H]5CC[C@]43C)[C@@H]12 [Example 21, 4-((1R,3aS,5aR,5bR,7aR,11aS,11bR,13aR,13bR)-3a-((2-(diethylamino)ethylamino)methyl)-5a,5b,8,8,11a-pentamethyl-1-(prop-1-en-2-yl)-2,3,3a,4,5,5a,5b,6,7,7a,8,11,11a,11b,12,13,13a,13b-octadecahydro-1H-cyclopenta[a]chrysen-9-yl)benzoic acid] | < 100
C=C(C)[C@@H]1CC[C@]2(CNCCCn3ccnc3C)CC[C@]3(C)[C@H](CC[C@@H]4[C@@]5(C)CC=C(c6ccc(C(=O)O)cc6)C(C)(C)[C@@H]5CC[C@]43C)[C@@H]12 [Example 22] | < 100
C=C(C)[C@@H]1CC[C@]2(CNCCCN3CCNC(=O)C3)CC[C@]3(C)[C@H](CC[C@@H]4[C@@]5(C)CC=C(c6ccc(C(=O)O)cc6)C(C)(C)[C@@H]5CC[C@]43C)[C@@H]12 [Example 23, 4-((1R,3aS,5aR,5bR,7aR,11aS,11bR,13aR,13bR)-5a,5b,8,8,11a-pentamethyl-3a-((3-(3-oxopiperazin-1-yl)propylamino)methyl)-1-(prop-1-en-2-yl)-2,3,3a,4,5,5a,5b,6,7,7a,8,11,11a,11b,12,13,13a,13b-octadecahydro-1H-cyclopenta[a]chrysen-9-yl)benzoic acid] | < 100
C=C(C)[C@@H]1CC[C@]2(CNCCN(CCO)CCO)CC[C@]3(C)[C@H](CC[C@@H]4[C@@]5(C)CC=C(c6ccc(C(=O)O)cc6)C(C)(C)[C@@H]5CC[C@]43C)[C@@H]12 [Example 24, 4-((1R,3aS,5aR,5bR,7aR,11aS,11bR,13aR,13bR)-3a-((2-(bis(2-hydroxyethyl)amino)ethylamino)methyl)-5a,5b,8,8,11a-pentamethyl-1-(prop-1-en-2-yl)-2,3,3a,4,5,5a,5b,6,7,7a,8,11,11a,11b,12,13,13a,13b-octadecahydro-1H-cyclopenta[a]chrysen-9-yl)benzoic acid] | < 100
C=C(C)[C@@H]1CC[C@]2(CNCCc3c[nH]cn3)CC[C@]3(C)[C@H](CC[C@@H]4[C@@]5(C)CC=C(c6ccc(C(=O)O)cc6)C(C)(C)[C@@H]5CC[C@]43C)[C@@H]12 [Example 25, 4-((1R,3aS,5aR,5bR,7aR,11aS,11bR,13aR,13bR)-3a-((2-(1H-imidazol-4-yl)ethylamino)methyl)-5a,5b,8,8,11a-pentamethyl-1-(prop-1-en-2-yl)-2,3,3a,4,5,5a,5b,6,7,7a,8,11,11a,11b,12,13,13a,13b-octadecahydro-1H-cyclopenta[a]chrysen-9-yl)benzoic acid] | < 100
C=C(C)[C@@H]1CC[C@]2(CNCCN(C)CCO)CC[C@]3(C)[C@H](CC[C@@H]4[C@@]5(C)CC=C(c6ccc(C(=O)O)cc6)C(C)(C)[C@@H]5CC[C@]43C)[C@@H]12 [Example 26, 4-((1R,3aS,5aR,5bR,7aR,11aS,11bR,13aR,13bR)-3a-((2-((2-hydroxyethyl)(methyl)amino)ethylamino)methyl)-5a,5b,8,8,11a-pentamethyl-1-(prop-1-en-2-yl)-2,3,3a,4,5,5a,5b,6,7,7a,8,11,11a,11b,12,13,13a,13b-octadecahydro-1H-cyclopenta[a]chrysen-9-yl)benzoic acid] | < 100
C=C(C)[C@@H]1CC[C@]2(CNCCCC(=O)OC(C)(C)C)CC[C@]3(C)[C@H](CC[C@@H]4[C@@]5(C)CC=C(c6ccc(C(=O)O)cc6)C(C)(C)[C@@H]5CC[C@]43C)[C@@H]12 [Example 27, 4-((1R,3aS,5aR,5bR,7aR,11aS,11bR,13aR,13bR)-3a-((4-tert-butoxy-4-oxobutylamino)methyl)-5a,5b,8,8,11a-pentamethyl-1-(prop-1-en-2-yl)-2,3,3a,4,5,5a,5b,6,7,7a,8,11,11a,11b,12,13,13a,13b-octadecahydro-1H-cyclopenta[a]chrysen-9-yl)benzoic acid] | < 100
C=C(C)[C@@H]1CC[C@]2(CNCC(=O)OC)CC[C@]3(C)[C@H](CC[C@@H]4[C@@]5(C)CC=C(c6ccc(C(=O)O)cc6)C(C)(C)[C@@H]5CC[C@]43C)[C@@H]12 [Example 30, 4-((1R,3aS,5aR,5bR,7aR,11aS,11bR,13aR,13bR)-3a-((2-methoxy-2-oxoethylamino)methyl)-5a,5b,8,8,11a-pentamethyl-1-(prop-1-en-2-yl)-2,3,3a,4,5,5a,5b,6,7,7a,8,11,11a,11b,12,13,13a,13b-octadecahydro-1H-cyclopenta[a]chrysen-9-yl)benzoic acid] | < 100

Same assay, conditions: NL43, MT-2 cells infected 4-5 days with NLRluc recombinant virus, numeric value

Compound | EC50 [nM]
C=C(C)[C@@H]1CC[C@]2(CNCCCC(=O)O)CC[C@]3(C)[C@H](CC[C@@H]4[C@@]5(C)CC=C(c6ccc(C(=O)O)cc6)C(C)(C)[C@@H]5CC[C@]43C)[C@@H]12 [Example 28, 4-((1R,3aS,5aR,5bR,7aR,11aS,11bR,13aR,13bR)-3a-((3-carboxypropylamino)methyl)-5a,5b,8,8,11a-pentamethyl-1-(prop-1-en-2-yl)-2,3,3a,4,5,5a,5b,6,7,7a,8,11,11a,11b,12,13,13a,13b-octadecahydro-1H-cyclopenta[a]chrysen-9-yl)benzoic acid] | 2
C=C(C)[C@@H]1CC[C@]2(CN3CCCC3=O)CC[C@]3(C)[C@H](CC[C@@H]4[C@@]5(C)CC=C(c6ccc(C(=O)O)cc6)C(C)(C)[C@@H]5CC[C@]43C)[C@@H]12 [Example 29] | 1000

Reference: patent US8748415B2 (priority 2011, dated 2014)
